# Assay results reported in paper PMC12190436, “5-Ene-2-arylaminothiazol-4(5H)-ones Induce Apoptosis in Breast Cancer Cells” (Cells, 2025).
# Columns and labels:
# cytochrome C = cytochrome C concentration, SimpleStep ELISA; assay type: cell-based, human; settings: 5 µM, 24 h, MCF-7
# Protocol: (§1) To determine the effects of the new 4-thiazolidinone derivatives and the reference drug on the concentration of p53 and cytochrome C in MCF-7 cell lysates or supernatants after 24 h of treatment, highly sensitive SimpleStep ELISA (enzyme-linked immunosorbent assay) kits (Abcam, Cambridge, UK) were applied. The cells were collected and washed thrice with cold PBS and centrifuged at 1000× g for 5 min at 4 °C. Next, the cells were suspended in lysis buffer to acquire cell lysates. Concurrently, the supernatants, acquired after centrifugation, were frozen immediately at −80 °C. The standards, samples, and antibody cocktail were added to the appropriate microtiter plate wells, followed by 1 h incubation at room temperature. The content of microplate wells was extracted, and the wells were washed thrice. Afterwards, a TMB development solution was added to each well. The enzyme–substrate reaction was terminated with a stop solution. The change in color was assessed by UV-VIS Helios Gamma (Unicam/ThermoFisher Scientific Inc., Cleveland, OH, USA) at 450 ± 2 nm wavelength.
# (§2) Both p53 and cytochrome C proteins play pivotal roles in the process of apoptosis. For this reason, concentrations of the mentioned proteins were measured in MCF-7 cells after 24 h treatment with the tested compounds (Les-6416, Les-6418, Les-6381, Les-6423, Les-6424) in concentrations of 5 µM.
# MCF-7 cells = assay: Acridine orange/ethidium bromide staining, morphology; assay type: cell-based, human; settings: 5 µM, 24 h, MCF-7, AO/EB staining
# Protocol: To display morphological changes in the MCF-7 cells after 24 h of treatment by lead compound Les-6416 and the positive control doxorubicin, we performed acridine orange and ethidium bromide staining. MCF-7 cells were seeded in 6-well plates at 1 × 10^5 cells per well in 2 mL medium, followed by incubation for 24 h. Afterwards, the cells were treated with lead compound Les-6416 at a concentration equal to 5 µM and DOX in a concentration equal to 0.5 µM. Next, cells were washed with 1 mL of PBS per well. Subsequently, double staining was performed using 10 µL of AO and EB, incubated at room temperature for 10 min. After that, cells were washed with PBS. Images were obtained with the use of a Nikon ECLIPSE Ti fluorescence microscope (Nikon, Tokyo, Japan). Images were analyzed using ImageJ software version 1.54k (Bethesda, MD, USA).
# To analyze morphological changes in MCF-7 cells after 24 h of treatment, we performed the double staining with acridine orange and ethidium bromide. This method provides the capability to observe different stages of cell death depending on cell membrane integrity and chromatin condensation. Green fluorescence can be observed due to acridine orange staining, that penetrates all cells, while red coloring is contributed to ethidium bromide, which can only penetrate cells with injured cell membranes. […]
# p53 = p53 concentration, SimpleStep ELISA; assay type: cell-based, human; settings: 5 µM, 24 h, MCF-7
# Protocol: as §1, §2
# SNB-19 = assay type: cell-based
# Breast Cancer = assay type: cell-based
# ACHN = assay type: cell-based
# Ovarian Cancer = assay type: cell-based
# M14 = assay type: cell-based
# OVCAR-3 = assay type: cell-based
# SN12C = assay type: cell-based
# MOLT-4 = assay type: cell-based
# CAKI-1 = assay type: cell-based
# RPMI-8226 = assay type: cell-based
# OVCAR-8 = assay type: cell-based
# IGROV1 = assay type: cell-based
# MALME -3M = assay type: cell-based
# SK-MEL-28 = assay type: cell-based
# Prostate Cancer = assay type: cell-based
# [1] = Homo sapiens, 48 h, read-out: LC50 (the source's name)
smiles,measurement,setting,value
"COc1cc(NC2=NC(=O)C(=Cc3ccc4cc[nH]c4c3)S2)cc(OC)c1OC [Les-6416, 5-((1H-Indol-6-yl)methylene)-2-((3,4,5-trimethoxyphenyl)amino)thiazol-4(5H)-one]",Concentration of cytochrome c,cytochrome C,4.56 ± 0.85 ng/mL
same,morphological changes,MCF-7 cells,cell shrinkage and chromatin condensation
same,Concentration of p53,p53,2.27 ± 0.55 ng/mL
"COc1cc(NC2=NC(=O)C(=Cc3c[nH]c4ccccc34)S2)cc(OC)c1OC [Les-6418, 5-((1H-Indol-3-yl)methylene)-2-((3,4,5-trimethoxyphenyl)amino)thiazol-4(5H)-one]",GI50,"SNB-19; Homo sapiens, SNB-19, 48 h",6.6 µM
same,CC50,"SNB-19; Homo sapiens, SNB-19, 48 h, read-out: LC50 (the source's name)",52.2 µM
same,TGI,"SNB-19; SNB-19, 48 h",21.2 µM
same,SI (TGI),"SNB-19; SNB-19, MG_MID_60/value",0.88
same,MG_MID TGI,Breast Cancer; Breast Cancer subpanel mean,13.2 µM
same,SI (MG_MID TGI),"Breast Cancer; Breast Cancer subpanel, MG_MID_60/value",1.41
same,GI50,"Breast Cancer; Homo sapiens, Breast Cancer subpanel mean, read-out: MG_MID GI50",2320 nM
same,CC50,"Breast Cancer; Homo sapiens, Breast Cancer subpanel mean, read-out: MG_MID LC50",55.8 µM
same,TGI,ACHN; 48 h,12.0 µM
same,GI50,"ACHN; Homo sapiens, 48 h",3.2 µM
same,CC50,ACHN; [1],36.1 µM
same,SI (TGI),ACHN; MG_MID_60/value,1.55
same,GI50,"Ovarian Cancer; Homo sapiens, Ovarian Cancer subpanel mean, read-out: MG_MID GI50",4.61 µM
same,CC50,"Ovarian Cancer; Homo sapiens, Ovarian Cancer subpanel mean, read-out: MG_MID LC50",50.5 µM
same,MG_MID TGI,Ovarian Cancer; Ovarian Cancer subpanel mean,16.7 µM
same,SI (MG_MID TGI),"Ovarian Cancer; Ovarian Cancer subpanel, MG_MID_60/value",1.11
same,GI50,"M14; Homo sapiens, M14, 48 h",2020 nM
same,CC50,"M14; Homo sapiens, M14, 48 h, read-out: LC50 (the source's name)",55.6 µM
same,TGI,"M14; M14, 48 h",15.9 µM
same,SI (TGI),"M14; M14, MG_MID_60/value",1.17
same,GI50,"OVCAR-3; Homo sapiens, OVCAR-3, 48 h",517 nM
same,CC50,"OVCAR-3; Homo sapiens, OVCAR-3, 48 h, read-out: LC50 (the source's name)",34 µM
same,Growth %,"OVCAR-3; OVCAR-3, 10 μM, one dose, 48 h",76.96%
same,TGI,"OVCAR-3; OVCAR-3, 48 h",5.32 µM
same,SI (TGI),"OVCAR-3; OVCAR-3, MG_MID_60/value",3.50
same,Growth %,"SN12C; 10 μM, one dose, 48 h",−88.00%
same,TGI,SN12C; 48 h,15.1 µM
same,GI50,"SN12C; Homo sapiens, 48 h",3.85 µM
same,CC50,SN12C; [1],43.6 µM
same,SI (TGI),SN12C; MG_MID_60/value,1.23
same,GI50,"MOLT-4; Homo sapiens, MOLT-4, 48 h",2630 nM
same,CC50,"MOLT-4; Homo sapiens, MOLT-4, 48 h, read-out: LC50 (the source's name)",> 100 µM
same,TGI,"MOLT-4; MOLT-4, 48 h",26.0 µM
same,SI (GI50),"MOLT-4; MOLT-4, MG_MID_60/value",1.24
same,SI (TGI),"MOLT-4; MOLT-4, MG_MID_60/value",0.72
same,TGI,"CAKI-1; CAKI-1, 48 h",10.3 µM
same,SI (TGI),"CAKI-1; CAKI-1, MG_MID_60/value",1.81
same,GI50,"CAKI-1; Homo sapiens, CAKI-1, 48 h",840 nM
same,CC50,"CAKI-1; Homo sapiens, CAKI-1, 48 h, read-out: LC50 (the source's name)",33.1 µM
same,GI50,"RPMI-8226; Homo sapiens, RPMI-8226, 48 h",5.73 µM
same,CC50,"RPMI-8226; Homo sapiens, RPMI-8226, 48 h, read-out: LC50 (the source's name)",> 100 µM
same,TGI,"RPMI-8226; RPMI-8226, 48 h",> 100 µM
same,SI (TGI),"RPMI-8226; RPMI-8226, MG_MID_60/value",0.19
same,GI50,"OVCAR-8; Homo sapiens, OVCAR-8, 48 h",10.6 µM
same,LC50 (50% lethal concentration),"OVCAR-8; Homo sapiens, OVCAR-8, 48 h",70.1 µM
same,TGI,"OVCAR-8; OVCAR-8, 48 h",27.2 µM
same,SI (TGI),"OVCAR-8; OVCAR-8, MG_MID_60/value",0.68
same,GI50,"IGROV1; Homo sapiens, IGROV-1, IGROV1, 48 h",4.91 µM
same,CC50,"IGROV1; Homo sapiens, IGROV-1, IGROV1, 48 h, read-out: LC50 (the source's name)",57.2 µM
same,TGI,"IGROV1; IGROV1, 48 h",21.6 µM
same,SI (TGI),"IGROV1; IGROV1, MG_MID_60/value",0.86
same,TGI,MALME -3M; 48 h,15.2 µM
same,GI50,"MALME -3M; Homo sapiens, 48 h",2010 nM
same,CC50,MALME -3M; [1],43.9 µM
same,SI (TGI),MALME -3M; MG_MID_60/value,1.22
same,GI50,"SK-MEL-28; Homo sapiens, SK-MEL-28, 48 h",6.07 µM
same,CC50,"SK-MEL-28; Homo sapiens, SK-MEL-28, 48 h, read-out: LC50 (the source's name)",49.9 µM
same,TGI,"SK-MEL-28; SK-MEL-28, 48 h",21.0 µM
same,SI (TGI),"SK-MEL-28; SK-MEL-28, MG_MID_60/value",0.89
same,GI50,"Prostate Cancer; Homo sapiens, Prostate Cancer subpanel mean, read-out: MG_MID GI50",3.61 µM
same,CC50,"Prostate Cancer; Homo sapiens, Prostate Cancer subpanel mean, read-out: MG_MID LC50",70.8 µM
same,MG_MID TGI,Prostate Cancer; Prostate Cancer subpanel mean,19.9 µM
same,SI (MG_MID TGI),"Prostate Cancer; Prostate Cancer subpanel, MG_MID_60/value",0.93
